Test results as given in patent US6528048B1, “Ophthalmic solutions” (Rohto Pharmaceutical Co., Ltd., priority 1998, dated 2003).

System: rabbit corneal epithelial cells
Assay: Cytotoxicity, Neutral red assay
Assay type: cell-based
Conditions: cultured 2 days
Description: Cytotoxicity of the compound (3) was evaluated by conducting a test according to the method of Neutral red assay using rabbit corneal epithelial cells of a CornePack kit (Kurabo Industries, Ltd.). The frozen cells of the primary culture were inoculated at a density of 4000 cells/cm^2 in a 25-cm^2 flask. The cells were cultured at 37° C. under an atmosphere of 5% CO2 for 5 days (the secondary culture) and then 100 μl aliquots of them were inoculated in the wells of a 96-well multi-plate at a cell density of 2500 cells/well. The culture was continued at 37° C. under an atmosphere of 5% CO2 for 3 days (tertiary culture). […] A 100 μl aliquot of the solutions was added into each well containing the corneal epithelial cells of the tertiary culture. The cells were further cultured at 37° C. under an atmosphere of 5% CO2 for 2 days. A 100 μl aliquot of a Neutral red solution (about 150 μg/ml) was added into each well. The cells were further cultured at 37° C. under an atmosphere of 5% CO2 for 2 hours to incorporate Neutral red into lysosomes of the viable cells. Then the culture supernatants were discarded by inverting the plate. A 200 μl aliquot of a solution containing formalin and calcium chloride were added into each well and the cells were fixed for 1 minute to improve the cell adhesion to the plate. The remaining Neutral red was washed out from the wells. Subsequently, the supernatants in the wells were discarded and 100 μl aliquots of a mixture consisting of acetic acid and ethanol were added to the wells. The plate was allowed to stand for 20 minutes to extract Neutral red incorporated in the viable cells. The amount of Neutral red was determined by measuring the absorbance at a wavelength of 540 nm. The averaged absorbance value of the blank (the measured value, which was obtained by the same assay procedure but in the absence of Neutral red, for the untreated control cells cultured under the same condition) was subtracted from the measured value of the sample to give the correction absorbance value. The viable cell rate was calculated from the ratio of the sample absorbance to the absorbance for the untreated cells according to the following equation. Viable cell rate in each plate=(Averaged absorbance of each test solution/Averaged absorbance of the untreated control)×100

Compound	Viable cell rate (test solution 1.0 μg/ml)	Viable cell rate (test solution 2.5 μg/ml)	Viable cell rate (test solution 5.0 μg/ml)	Viable cell rate (test solution 10.0 μg/ml)	Viable cell rate (test solution 0.5 μg/ml)
N=C(NCCCCCCNC(=N)NC(=N)Nc1ccc(Cl)cc1)NC(=N)Nc1ccc(Cl)cc1.O=C(O)[C@H](O)[C@@H](O)[C@H](O)[C@H](O)CO.O=C(O)[C@H](O)[C@@H](O)[C@H](O)[C@H](O)CO [Chlorhexidine gluconate]	103%	74%	49%	3%	–
Benzalkonium chloride	52%	49%	2%	–	60%
